Measurements reported in PubChem BioAssay (NCI).
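Test compounds were applied to cells in 96-well plates for 48 hours at 5 doses. The concentration for 50% growth inhibition is given as GI50. TGI denotes the concentration required for complete inhibition of growth.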

Key:
Experiment in all cases: DTP human tumour cell line panel, 48 h
[1] = system: 786-0 renal
[2] = system: A498 renal
[3] = system: A549 NSCLC
[4] = system: ACHN renal
[5] = system: BT-549 breast
[6] = system: CAKI-1 renal
[7] = system: CCRF-CEM leukemia
[8] = system: COLO 205 colon
[9] = system: DU-145 prostate
[10] = system: EKVX NSCLC
[11] = system: HCC-2998 colon
[12] = system: HCT-116 colon
[13] = system: HCT-15 colon
[14] = system: HL-60(TB) leukemia
[15] = system: HOP-62 NSCLC
[16] = system: HOP-92 NSCLC
[17] = system: HS 578T breast
[18] = system: HT29 colon
[19] = system: IGROV1 ovarian
[20] = system: K-562 leukemia
[21] = system: KM12 colon
[22] = system: LOX IMVI melanoma
[23] = system: M14 melanoma
[24] = system: MALME-3M melanoma
[25] = system: MCF7 breast
[26] = system: MDA-MB-231 breast
[27] = system: MDA-MB-435
[28] = system: MDA-MB-468 breast
[29] = system: MOLT-4 leukemia
[30] = system: NCI-H226 lung
[31] = system: NCI-H23 lung
[32] = system: NCI-H460 lung
[33] = system: NCI-H522 lung
[34] = system: NCI/ADR-RES ovarian
[35] = system: OVCAR-3 ovarian
[36] = system: OVCAR-4 ovarian
[37] = system: OVCAR-5 ovarian
[38] = system: OVCAR-8 ovarian
[39] = system: PC-3 prostate
[40] = system: RXF 393 renal
[41] = system: SF-268 CNS
[42] = system: SF-295 CNS
[43] = system: SF-539 CNS
[44] = system: SK-MEL-2 melanoma
[45] = system: SK-MEL-28 melanoma
[46] = system: SK-MEL-5 melanoma
[47] = system: SK-OV-3 ovarian
[48] = system: SN12C renal
[49] = system: SNB-19 CNS
[50] = system: SNB-75 CNS
[51] = system: SR leukemia
[52] = system: SW-620 colon
[53] = system: T-47D breast
[54] = system: TK-10 renal
[55] = system: U251 CNS
[56] = system: UACC-257 melanoma
[57] = system: UACC-62 melanoma
[58] = system: UO-31 renal

Compound `O=C(NCCCCC(c1ccc(F)cc1)c1ccc(F)cc1)Nc1ccc([N+](=O)[O-])c(C(F)(F)F)c1` has a GI50 [1] of 2.26 µM, a TGI [1] of 8.86 µM and a GI50 [2] of 1.84 µM. For the same compound, the TGI [2] was 5.51 µM, the GI50 [3] was 3.19 µM and the TGI [3] was 12.6 µM. It also gave a GI50 [4] of 1.63 µM, a TGI [4] of 6.81 µM and a GI50 [5] of 1.86 µM. The TGI [5] was 4.23 µM, the GI50 [6] was 2.07 µM and the TGI [6] was 6.5 µM. For the same compound, the GI50 [7] was 0.674 µM, the TGI [7] was 8.27 µM and the GI50 [8] was 1.73 µM. The TGI [8] was 3.24 µM, the GI50 [9] was 3.53 µM and the TGI [9] was 15.7 µM. The GI50 [10] was 2.3 µM, the TGI [10] was 8.53 µM and the GI50 [11] was 2.61 µM. For the same compound, the TGI [11] was 11.5 µM, the GI50 [12] was 0.521 µM and the TGI [12] was 2.81 µM. It also gave a GI50 [13] of 1.8 µM, a TGI [13] of 6.63 µM and a GI50 [14] of 3.19 µM. The TGI [14] was greater than 100 µM, the GI50 [15] was 1.99 µM and the TGI [15] was 4.62 µM. The GI50 [16] was 1.03 µM, the TGI [16] was 5.11 µM and the GI50 [17] was 2.22 µM. For the same compound, the TGI [17] was 6.22 µM, the GI50 [18] was 3.22 µM and the TGI [18] was 13.4 µM. It also gave a GI50 [19] of 2.71 µM, a TGI [19] of 12.5 µM and a GI50 [20] of 0.561 µM. The TGI [20] was greater than 100 µM, the GI50 [21] was 2.07 µM and the TGI [21] was 7.77 µM. It also gave a GI50 [22] of 1.69 µM, a TGI [22] of 3.37 µM and a GI50 [23] of 2.08 µM. For the same compound, the TGI [23] was 6.63 µM, the GI50 [24] was 1.84 µM and the TGI [24] was 4.64 µM. For the same compound, the GI50 [25] was 2.14 µM, the TGI [25] was 10.1 µM and the GI50 [26] was 1.82 µM. It also gave a TGI [26] of 3.72 µM, a GI50 [27] of 2.15 µM and a TGI [27] of 7.58 µM. The GI50 [28] was 0.559 µM, the TGI [28] was 3.08 µM and the GI50 [29] was 2.81 µM. For the same compound, the TGI [29] was greater than 100 µM, the GI50 [30] was 2.16 µM and the TGI [30] was 6.55 µM. The GI50 [31] was 2.27 µM, the TGI [31] was 8.51 µM and the GI50 [32] was 1.61 µM. It also gave a TGI [32] of 5.54 µM, a GI50 [33] of 1.74 µM and a TGI [33] of 5.17 µM. It also gave a GI50 [34] of 2.36 µM, a TGI [34] of 8.68 µM and a GI50 [35] of 1.52 µM. It also gave a TGI [35] of 5.31 µM, a GI50 [36] of 2.81 µM and a TGI [36] of 15.8 µM. It also gave a GI50 [37] of 2.28 µM, a TGI [37] of 7.89 µM and a GI50 [38] of 3.24 µM. It also gave a TGI [38] of 16 µM, a GI50 [39] of 0.415 µM and a TGI [39] of 8.72 µM. The GI50 [40] was 2.23 µM, the TGI [40] was 6.25 µM and the GI50 [41] was 2.92 µM. For the same compound, the TGI [41] was 12.4 µM, the GI50 [42] was 0.972 µM and the TGI [42] was 3.73 µM. The GI50 [43] was 1.92 µM, the TGI [43] was 4.01 µM and the GI50 [44] was 1.92 µM. It also gave a TGI [44] of 4.07 µM, a GI50 [45] of 3.03 µM and a TGI [45] of 11.5 µM. The GI50 [46] was 1.59 µM, the TGI [46] was 2.97 µM and the GI50 [47] was 2.26 µM. It also gave a TGI [47] of 6.05 µM, a GI50 [48] of 1.98 µM and a TGI [48] of 6.52 µM. For the same compound, the GI50 [49] was 2.91 µM, the TGI [49] was 16.1 µM and the GI50 [50] was 1.65 µM. It also gave a TGI [50] of 7.64 µM, a GI50 [51] of 2.97 µM and a TGI [51] greater than 100 µM. The GI50 [52] was 2.26 µM, the TGI [52] was 10.9 µM and the GI50 [53] was 1.85 µM. For the same compound, the TGI [53] was 6.93 µM, the GI50 [54] was 2.94 µM and the TGI [54] was 10.9 µM. For the same compound, the GI50 [55] was 2.2 µM, the TGI [55] was 5.98 µM and the GI50 [56] was 2.48 µM. For the same compound, the TGI [56] was 7.97 µM, the GI50 [57] was 1.33 µM and the TGI [57] was 2.84 µM. The GI50 [58] was 1.82 µM and the TGI [58] was 7.43 µM.
